Data: US20050113455A1, “Method and composition for amelioration of pain” (priority 2003, published 2005)

Key:
[1] = tested on: visceral nociception (stretching) in mice; experiment: Murine visceral pain model: stretching in mouse i.p. acetic acid test; format: in vivo; conditions: for MED (minimum dose at which the number of stretches during the observation period is significantly different from saline controls): mouse, s.c. administration, 0.6% acetic acid i.p., 30 min observation; for Potency at inhibiting visceral nociception relative to morphine: mouse i.p. acetic acid test, dose-response relationships
Description: Dose-response relationships for the polyamines listed in Table 1 were performed in the mouse i.p. acetic acid test.
Assessment of Candidate Agents in a Murine Visceral Pain Model: There is an extensive literature on visceral pain in the acetic acid mouse model (Bidlack J M, Cohen D J, McLaughlin J P, Lou R, Ye Y, Wentland M P. 8-carboxamidocyclazocine: A long-acting, novel benzomorphan. J Pharmacol Exp Ther. 2002;302:374-380; Reichert J A, Daughters R S, Rivard R, Simone D A. Peripheral and preemptive opioid antinociception in a mouse visceral pain model. Pain. 2001;89:221-227; Farzin D, Asghari L, Nowrouzi M. Rodent antinociception following acute treatment with different histamine receptor agonists and antagonists. Pharmacol Biochem Behav. 2002;72:751-760; Hinschberger A, Butt 5, Lelong V, Boulouard M, Dumuis A, Dauphin F, Bureau R, Pfeiffer B, Renard P, Rault S. New benzo[h][1,6]naphthyridine and azepino[3,2-c]quinoline derivatives as selective antagonists of 5-ht4 receptors: Binding profile and pharmacological characterization. J Med Chem. 2003;46:138-147).
The mice receive either an s.c. or i.p. injection (0.3 mL) of either saline or a test drug at varying doses. Fifteen to thirty minutes following the treatment, the animals receive an i.p. injection of 0.6% acetic acid in saline (sterile, 0.3 mL). The mice are then placed into holding cages and observed for 30 mm. The number of stretches the animals make following the acetic acid injections are counted. A stretch is identified by the animal extending its hind legs well behind its body. This posture is rarely seen in a non-injected animal.

[2] = cited from earlier work

## dihydroxydiethylnorspermine [(HO)2DENSPM]
[1]
  MED (minimum dose at which the number of stretches during the observation period is significantly different from saline controls): 0.0037 mg/kg s.c.

## C(CCNC1CCNCC1)CNC1CCNCC1 [PIP(3,4,3), N,N′-bis(4-piperidinyl)-1,4-butanediamine]
[1]
  Effectiveness in the murine visceral pain model (in words): less so

## CCNCCCNCCCNCCCNCC [DENSPM, N^1,N^11-diethylnorspermine]
[1]
  Effectiveness in the murine visceral pain model (in words): highly effective
  MED (minimum dose at which the number of stretches during the observation period is significantly different from saline controls): 0.37 mg/kg s.c.

## CN1CC[C@]23c4c5ccc(O)c4O[C@H]2[C@@H](O)C=C[C@H]3[C@H]1C5 [morphine, reference compound]
[1]; observed during mouse i.p. acetic acid test
  Overt cognitive / behavioural effects in mice: produced stereotypical opiate induced hyperactivity and Straub tail

## CCNCCCNCCCCNCCCNCC [DESPM, N^1,N^12-diethylspermine]
[1]
  Effectiveness in the murine visceral pain model (in words): less so

## CCCCNCCCNCCCCNCCCNCCCC [DBSPM, N^1N^11-dibutylspermine]
[1]
  MED (minimum dose at which the number of stretches during the observation period is significantly different from saline controls): 0.12 mg/kg s.c.

## CCNCCCCNCCCCNCCCCNCC [DEHSPM, N^1,N^14-diethylhomospermine]
[2]
  Cognitive effects in human clinical trials: lack of cognitive effects
[1]
  Effectiveness in the murine visceral pain model (in words): highly effective
  Potency at inhibiting visceral nociception relative to morphine: equipotent to morphine

## CCNCCCN[C@H]1CC[C@H](NCCCNCC)CC1 [CHX(3,4,3)-trans, N,N′-bis[3-(ethylamino)propyl]-trans-1,4-cyclohexanediamine]
[1]
  Potency at inhibiting visceral nociception relative to morphine: more than three orders of magnitude more potent than morphine
  MED (minimum dose at which the number of stretches during the observation period is significantly different from saline controls): 0.0037 mg/kg s.c.

## CC(C)NCCCNCCCCNCCCNC(C)C [DIPSPM, N^1N^12-diisopropylspermime]
[1]
  Effectiveness in the murine visceral pain model (in words): less so
